Test results from article PMC12102759 (Protein Science : A Publication of the Protein Society, 2025).
Where two headings read alike, the source gives them in different places.

System: G3BP1 NFT2
Type: binding, human
Details: library DMS-CoV, bait G3BP1 NFT2, prey N, listed as aa = residue placed at this position, column sums to 1

Sequence: RNAPRITFGGPSDSTG G16Q (RNAPRITFGGPSDSTQ)
- DMS PSSM value, G (position 16) (peptide RNAPRITFGGPSDSTG): 0

Sequence: RNAPRITFGGPSDSTG P11A (RNAPRITFGGASDSTG)
- DMS PSSM value, P (position 11) (peptide RNAPRITFGGPSDSTG): 0

Sequence: RNAPRITFGGPSDSTG T15Y (RNAPRITFGGPSDSYG)
- DMS PSSM value, T (position 15) (peptide RNAPRITFGGPSDSTG): 0

Sequence: RNAPRITFGGPSDSTG N2S (RSAPRITFGGPSDSTG)
- DMS PSSM value, N (position 2) (peptide RNAPRITFGGPSDSTG): 0.05861

Sequence: RNAPRITFGGPSDSTG D13L (RNAPRITFGGPSLSTG)
- DMS PSSM value, D (position 13) (peptide RNAPRITFGGPSDSTG): 0

Sequence: RNAPRITFGGPSDSTG G9A (RNAPRITFAGPSDSTG)
- DMS PSSM value, G (position 9) (peptide RNAPRITFGGPSDSTG): 0

Sequence: APRITFGGPSDSTGSN P2F (AFRITFGGPSDSTGSN)
- DMS PSSM value, P (position 2) (peptide APRITFGGPSDSTGSN): 0.0008942

Sequence: APRITFGGPSDSTGSN S15T (APRITFGGPSDSTGTN)
- DMS PSSM value, S (position 15) (peptide APRITFGGPSDSTGSN): 0.008335

Sequence: RNAPRITFGGPSDSTG N2Y (RYAPRITFGGPSDSTG)
- DMS PSSM value, N (position 2) (peptide RNAPRITFGGPSDSTG): 0

Sequence: APRITFGGPSDSTGSN G14I (APRITFGGPSDSTISN)
- DMS PSSM value, G (position 14) (peptide APRITFGGPSDSTGSN): 0.0004999

Sequence: RNAPRITFGGPSDSTG P4E (RNAERITFGGPSDSTG)
- DMS PSSM value, P (position 4) (peptide RNAPRITFGGPSDSTG): 0.9115

Sequence: APRITFGGPSDSTGSN D11E (APRITFGGPSESTGSN)
- DMS PSSM value, D (position 11) (peptide APRITFGGPSDSTGSN): 0.08423

Sequence: APRITFGGPSDSTGSN P2R (ARRITFGGPSDSTGSN)
- DMS PSSM value, P (position 2) (peptide APRITFGGPSDSTGSN): 0

Sequence: RNAPRITFGGPSDSTG S14F (RNAPRITFGGPSDFTG)
- DMS PSSM value, S (position 14) (peptide RNAPRITFGGPSDSTG): 0

Sequence: APRITFGGPSDSTGSN R3H (APHITFGGPSDSTGSN)
- DMS PSSM value, R (position 3) (peptide APRITFGGPSDSTGSN): 0.008447

Sequence: RNAPRITFGGPSDSTG R5A (RNAPAITFGGPSDSTG)
- DMS PSSM value, R (position 5) (peptide RNAPRITFGGPSDSTG): 0.0005421

Sequence: RNAPRITFGGPSDSTG A3Q (RNQPRITFGGPSDSTG)
- DMS PSSM value, A (position 3) (peptide RNAPRITFGGPSDSTG): 0

Sequence: RNAPRITFGGPSDSTG F8W (RNAPRITWGGPSDSTG)
- DMS PSSM value, F (position 8) (peptide RNAPRITFGGPSDSTG): 0

Sequence: RNAPRITFGGPSDSTG N2F (RFAPRITFGGPSDSTG)
- DMS PSSM value, N (position 2) (peptide RNAPRITFGGPSDSTG): 0

Sequence: APRITFGGPSDSTGSN D11Y (APRITFGGPSYSTGSN)
- DMS PSSM value, D (position 11) (peptide APRITFGGPSDSTGSN): 0.02603

Sequence: RNAPRITFGGPSDSTG S14W (RNAPRITFGGPSDWTG)
- DMS PSSM value, S (position 14) (peptide RNAPRITFGGPSDSTG): 0

Sequence: RNAPRITFGGPSDSTG D13Q (RNAPRITFGGPSQSTG)
- DMS PSSM value, D (position 13) (peptide RNAPRITFGGPSDSTG): 0

Sequence: APRITFGGPSDSTGSN P2T (ATRITFGGPSDSTGSN)
- DMS PSSM value, P (position 2) (peptide APRITFGGPSDSTGSN): 0

Sequence: APRITFGGPSDSTGSN P9F (APRITFGGFSDSTGSN)
- DMS PSSM value, P (position 9) (peptide APRITFGGPSDSTGSN): 0.2349

Sequence: RNAPRITFGGPSDSTG G16D (RNAPRITFGGPSDSTD)
- DMS PSSM value, G (position 16) (peptide RNAPRITFGGPSDSTG): 0

Sequence: RNAPRITFGGPSDSTG G10L (RNAPRITFGLPSDSTG)
- DMS PSSM value, G (position 10) (peptide RNAPRITFGGPSDSTG): 0

Sequence: APRITFGGPSDSTGSN S10K (APRITFGGPKDSTGSN)
- DMS PSSM value, S (position 10) (peptide APRITFGGPSDSTGSN): 0.006118

Sequence: APRITFGGPSDSTGSN A1H (HPRITFGGPSDSTGSN)
- DMS PSSM value, A (position 1) (peptide APRITFGGPSDSTGSN): 0.001405

Sequence: RNAPRITFGGPSDSTG G9E (RNAPRITFEGPSDSTG)
- DMS PSSM value, G (position 9) (peptide RNAPRITFGGPSDSTG): 0

Sequence: APRITFGGPSDSTGSN I4E (APRETFGGPSDSTGSN)
- DMS PSSM value, I (position 4) (peptide APRITFGGPSDSTGSN): 0

Sequence: RNAPRITFGGPSDSTG S14H (RNAPRITFGGPSDHTG)
- DMS PSSM value, S (position 14) (peptide RNAPRITFGGPSDSTG): 0

Sequence: APRITFGGPSDSTGSN G7A (APRITFAGPSDSTGSN)
- DMS PSSM value, G (position 7) (peptide APRITFGGPSDSTGSN): 0

Sequence: APRITFGGPSDSTGSN F6L (APRITLGGPSDSTGSN)
- DMS PSSM value, F (position 6) (peptide APRITFGGPSDSTGSN): 0.004454

Sequence: APRITFGGPSDSTGSN T5I (APRIIFGGPSDSTGSN)
- DMS PSSM value, T (position 5) (peptide APRITFGGPSDSTGSN): 0.002921

Sequence: APRITFGGPSDSTGSN P9H (APRITFGGHSDSTGSN)
- DMS PSSM value, P (position 9) (peptide APRITFGGPSDSTGSN): 0

Sequence: RNAPRITFGGPSDSTG S12I (RNAPRITFGGPIDSTG)
- DMS PSSM value, S (position 12) (peptide RNAPRITFGGPSDSTG): 0

Sequence: RNAPRITFGGPSDSTG D13P (RNAPRITFGGPSPSTG)
- DMS PSSM value, D (position 13) (peptide RNAPRITFGGPSDSTG): 1

Sequence: RNAPRITFGGPSDSTG G9T (RNAPRITFTGPSDSTG)
- DMS PSSM value, G (position 9) (peptide RNAPRITFGGPSDSTG): 0

Sequence: APRITFGGPSDSTGSN S12Y (APRITFGGPSDYTGSN)
- DMS PSSM value, S (position 12) (peptide APRITFGGPSDSTGSN): 0.2998

Sequence: APRITFGGPSDSTGSN A1Y (YPRITFGGPSDSTGSN)
- DMS PSSM value, A (position 1) (peptide APRITFGGPSDSTGSN): 0.04618

Sequence: APRITFGGPSDSTGSN R3Q (APQITFGGPSDSTGSN)
- DMS PSSM value, R (position 3) (peptide APRITFGGPSDSTGSN): 0.006747

Sequence: APRITFGGPSDSTGSN G14S (APRITFGGPSDSTSSN)
- DMS PSSM value, G (position 14) (peptide APRITFGGPSDSTGSN): 0.004295

Sequence: APRITFGGPSDSTGSN I4W (APRWTFGGPSDSTGSN)
- DMS PSSM value, I (position 4) (peptide APRITFGGPSDSTGSN): 0

Sequence: RNAPRITFGGPSDSTG I6A (RNAPRATFGGPSDSTG)
- DMS PSSM value, I (position 6) (peptide RNAPRITFGGPSDSTG): 0

Sequence: RNAPRITFGGPSDSTG S12L (RNAPRITFGGPLDSTG)
- DMS PSSM value, S (position 12) (peptide RNAPRITFGGPSDSTG): 0

Sequence: APRITFGGPSDSTGSN G14W (APRITFGGPSDSTWSN)
- DMS PSSM value, G (position 14) (peptide APRITFGGPSDSTGSN): 0.2634

Sequence: APRITFGGPSDSTGSN S10N (APRITFGGPNDSTGSN)
- DMS PSSM value, S (position 10) (peptide APRITFGGPSDSTGSN): 0

Sequence: APRITFGGPSDSTGSN D11M (APRITFGGPSMSTGSN)
- DMS PSSM value, D (position 11) (peptide APRITFGGPSDSTGSN): 0.4258

Sequence: RNAPRITFGGPSDSTG P4G (RNAGRITFGGPSDSTG)
- DMS PSSM value, P (position 4) (peptide RNAPRITFGGPSDSTG): 0

Sequence: RNAPRITFGGPSDSTG S14K (RNAPRITFGGPSDKTG)
- DMS PSSM value, S (position 14) (peptide RNAPRITFGGPSDSTG): 0

Sequence: RNAPRITFGGPSDSTG I6H (RNAPRHTFGGPSDSTG)
- DMS PSSM value, I (position 6) (peptide RNAPRITFGGPSDSTG): 0
